For 27 molecules, TGI and GI50 results are on record in PubChem BioAssay (NCI).

Test systems include NCI-H226 lung; U251 CNS; OVCAR-3 ovarian; SK-MEL-28 melanoma; MALME-3M melanoma; CCRF-CEM leukemia; NCI-H522 lung.
Common to all, as to assay: growth of human tumour cells (NCI), 48 h

Several values for one entry are separate records, joined by “and”; a condition that tells them apart may be missing. Identical values can stand only once.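 A five-concentration, 48-hour dose response in 96-well plates underlies each endpoint, interpolated linearly between surrounding concentrations. At the GI50, growth is halved. TGI: concentration producing complete growth inhibition.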

For the molecule `O=C(O/N=C1/CCCC/C1=C\c1ccccc1)c1ccccc1`, the TGI in the experiment on NCI-H226 lung, with U251 CNS, with OVCAR-3 ovarian, in the experiment with SK-MEL-28 melanoma, with MALME-3M melanoma and with CCRF-CEM leukemia was above 100 µM in each case. Also, the TGI in the experiment with NCI-H522 lung is above 100 µM.

On to `CC(=O)Nc1ccc(C(=O)NN2C(=O)C(Cl)C2c2ccccc2)cc1` (stereo not given), for which the TGI in the experiment on NCI-H226 lung, in the experiment on U251 CNS, in the experiment with OVCAR-3 ovarian, in the experiment with SK-MEL-28 melanoma, in the experiment with MALME-3M melanoma and in the experiment with CCRF-CEM leukemia was above 100 µM in each case. Further, the TGI in the experiment on NCI-H522 lung was above 100 µM.

As for `O=C1OC(c2ccccc2)=N/C1=C/C=C/c1ccco1`, the TGI in the experiment with U251 CNS, with OVCAR-3 ovarian, in the experiment on SK-MEL-28 melanoma, in the experiment on MALME-3M melanoma, in the experiment with CCRF-CEM leukemia and with NCI-H522 lung was above 100 µM each time.

As for `O=[N+]([O-])c1nccn1CC(O)c1ccc(F)cc1` (stereo not given), the TGI in the experiment on NCI-H226 lung, in the experiment with U251 CNS, with OVCAR-3 ovarian, in the experiment on SK-MEL-28 melanoma, in the experiment on MALME-3M melanoma and in the experiment with CCRF-CEM leukemia was above 100 µM in each case. This molecule also returned a TGI with NCI-H522 lung above 100 µM.

Consider `CCOC(=O)Oc1c(OC)cc(C(=O)NC2CCc3cc(OC)c(OC)c(OC)c3-c3ccc(SC)c(=O)cc32)cc1OC` (stereo not given), for which the GI50 is 0.00709 µM in the experiment with NCI-H226 lung, 0.00962 µM in the experiment on U251 CNS, below 0.007 µM in the experiment with OVCAR-3 ovarian and 0.0205 µM in the experiment on MALME-3M melanoma. For the same molecule, the TGI in the experiment with NCI-H226 lung was 0.0974 µM and 0.0242 µM; in the experiment with U251 CNS it was 0.287 µM and 0.0579 µM; in the experiment on SK-MEL-28 melanoma it was above 70 µM; in the experiment with MALME-3M melanoma it was above 70 µM; with NCI-H522 lung it was below 0.007 µM.

For the molecule `C=C(CCCCC)CN1CCCC1[C@@](C)(O)CC(=O)OCC` (stereo not given in full), the TGI with NCI-H226 lung, in the experiment with U251 CNS, in the experiment with OVCAR-3 ovarian, in the experiment with SK-MEL-28 melanoma, in the experiment on MALME-3M melanoma and in the experiment with CCRF-CEM leukemia was above 100 µM in each case. The molecule also showed a TGI in the experiment on NCI-H522 lung above 100 µM.

With `COC(=O)c1cc2c3ccccc3n(C(C)=O)c2cn1`, the TGI in the experiment on NCI-H226 lung, in the experiment with U251 CNS, in the experiment on OVCAR-3 ovarian, with SK-MEL-28 melanoma, with MALME-3M melanoma and in the experiment with CCRF-CEM leukemia was above 100 µM each time. The molecule further had a TGI with NCI-H522 lung above 100 µM.

On to `O=C1c2ccccc2C(=O)C1(Cl)C1(S(=O)(=O)O)c2ccccc2-c2ccccc21`, for which the TGI with NCI-H226 lung, in the experiment with U251 CNS, in the experiment on OVCAR-3 ovarian, in the experiment on SK-MEL-28 melanoma, with MALME-3M melanoma and in the experiment with CCRF-CEM leukemia was above 100 µM each time. In the experiment on NCI-H522 lung, this molecule yielded a TGI above 100 µM.

`Cc1ccc(SC(C)/C=C/NNC2=NC(c3ccccc3)C(c3ccccc3)=NN2)cc1` (stereo not given): the TGI is 98.1 µM with NCI-H226 lung; above 100 µM in the experiment on OVCAR-3 ovarian; above 100 µM in the experiment with SK-MEL-28 melanoma; above 100 µM in the experiment on MALME-3M melanoma; above 100 µM with CCRF-CEM leukemia; 88.9 µM with NCI-H522 lung.

On to `COC(=O)C(C(=O)C(=O)Nc1cccc(OC)c1)c1cnc2ccccc2n1` (stereo not given), for which the TGI in the experiment with NCI-H226 lung, in the experiment on U251 CNS, with SK-MEL-28 melanoma, in the experiment on MALME-3M melanoma, in the experiment on CCRF-CEM leukemia and with NCI-H522 lung was above 100 µM each time.

In the case of `Cc1ccccc1N1C(=O)/C(=C/c2ccc(N(CCC#N)CCC#N)cc2)N=C1c1cc([N+](=O)[O-])ccc1Cl`, the TGI in the experiment on NCI-H226 lung, in the experiment with U251 CNS, in the experiment with OVCAR-3 ovarian, in the experiment on SK-MEL-28 melanoma, in the experiment with MALME-3M melanoma and in the experiment with CCRF-CEM leukemia was above 100 µM throughout. For the same molecule, the TGI in the experiment on NCI-H522 lung is above 100 µM.

`CCCCOC(=O)C1C(c2ccc(Cl)cc2)NC(c2ccc(Cl)cc2)C(C(=O)OCCCC)S1(=O)=O` (stereo not given): the TGI in the experiment with NCI-H226 lung, in the experiment on U251 CNS, with OVCAR-3 ovarian, in the experiment with SK-MEL-28 melanoma, with MALME-3M melanoma and in the experiment on CCRF-CEM leukemia was above 100 µM throughout. Besides, the TGI with NCI-H522 lung was above 100 µM.

For `COc1ccc(C2S/C(=C\c3ccccc3O)C(=O)N2NC(=O)Cc2ccccc2)cc1` (stereo not given), the TGI in the experiment with NCI-H226 lung, with U251 CNS, in the experiment on SK-MEL-28 melanoma, in the experiment on MALME-3M melanoma, with CCRF-CEM leukemia and with NCI-H522 lung was above 100 µM in each case.

As for `COc1ccc(OC)c(NC(=O)C(=O)NNC(=O)c2sc(NNC(C)=O)nc2C)c1`, the TGI in the experiment with NCI-H226 lung was above 100 µM; with U251 CNS, above 100 µM; in the experiment on OVCAR-3 ovarian it was 66.3 µM; in the experiment on SK-MEL-28 melanoma it was above 100 µM; in the experiment on MALME-3M melanoma, above 100 µM; in the experiment with CCRF-CEM leukemia, 45.2 µM. The molecule also returned a TGI in the experiment on NCI-H522 lung of 44.3 µM.

For `CCCCN(CCCC)CC(C(=O)Nc1ccc([N+](=O)[O-])cc1[N+](=O)[O-])/C(C)=N\NC(=S)NN` (stereo not given), the TGI in the experiment on NCI-H226 lung, in the experiment with U251 CNS, in the experiment on OVCAR-3 ovarian, with SK-MEL-28 melanoma, in the experiment with MALME-3M melanoma and in the experiment on CCRF-CEM leukemia was above 100 µM each time. In the experiment with NCI-H522 lung, the TGI amounted to 65.4 µM.

In the case of `CC1=CC(/C=C(\C)CCCc2ccoc2)C2(OC(=O)C(C)=C2O)[C@H]2C1CC[C@@H]2C` (stereo not given in full), the TGI was 54.6 µM in the experiment with NCI-H226 lung; 67.1 µM with U251 CNS; 51 µM in the experiment on OVCAR-3 ovarian; above 100 µM in the experiment with SK-MEL-28 melanoma; 57.1 µM in the experiment on MALME-3M melanoma; 58.6 µM in the experiment with CCRF-CEM leukemia. Further, the TGI with NCI-H522 lung turned out to be 31.2 µM.

For `O=[n+]1c2c(n([O-])c3ccccc31)CCCCCCCCCC2`, the TGI in the experiment on NCI-H226 lung is 61.8 µM; in the experiment with U251 CNS it was above 100 µM; with OVCAR-3 ovarian, above 100 µM; in the experiment on SK-MEL-28 melanoma it was above 100 µM; with MALME-3M melanoma, above 100 µM; with CCRF-CEM leukemia, above 100 µM. In the experiment on NCI-H522 lung, this molecule came in with a TGI above 100 µM.

For `CC1=Nc2ccccc2C1C(Cc1ccccc1N)c1c(C)[nH]c2ccccc12` (stereo not given), the TGI in the experiment on NCI-H226 lung was 32.9 µM; in the experiment on U251 CNS it was 32.4 µM; in the experiment with OVCAR-3 ovarian, 31.4 µM; with SK-MEL-28 melanoma, 32.8 µM; in the experiment on MALME-3M melanoma it was 31 µM; in the experiment with CCRF-CEM leukemia, 47.2 µM. The TGI with NCI-H522 lung came out at 31.6 µM.

As for `COC(=O)C1=C(c2ccc3c(c2)OCO3)O[C@H](c2cc(OC)c(OC)c(OC)c2)[C@H]1COC(C)=O`, the TGI in the experiment on NCI-H226 lung is above 100 µM; in the experiment with U251 CNS, 18.4 µM; in the experiment on OVCAR-3 ovarian it was 8.22 µM; with SK-MEL-28 melanoma, above 100 µM; in the experiment with MALME-3M melanoma, 92.5 µM; with CCRF-CEM leukemia it was above 100 µM.

With `O=c1nc2occc2cn1C1CC(O)C(CO)O1` (stereo not given), the TGI with NCI-H226 lung, in the experiment with U251 CNS, in the experiment on OVCAR-3 ovarian, in the experiment with SK-MEL-28 melanoma, in the experiment on MALME-3M melanoma and in the experiment on CCRF-CEM leukemia was above 100 µM throughout.

As for `COC(=O)C12C3C4C1C1C2C3C41C(=O)OC(C)(C)C` (stereo not given), the TGI in the experiment with NCI-H226 lung, with U251 CNS, in the experiment on OVCAR-3 ovarian, in the experiment with SK-MEL-28 melanoma, in the experiment on MALME-3M melanoma and in the experiment on CCRF-CEM leukemia was above 100 µM each time. The molecule also yielded a TGI in the experiment with NCI-H522 lung above 100 µM.

For the molecule `CNC(=S)NC1CCCCC1NC(=S)NC` (stereo not given), the TGI in the experiment with NCI-H226 lung, in the experiment on U251 CNS, in the experiment with OVCAR-3 ovarian, in the experiment with SK-MEL-28 melanoma, with MALME-3M melanoma and in the experiment with CCRF-CEM leukemia was above 100 µM in each case. Further, in the experiment with NCI-H522 lung, the TGI is above 100 µM.

With `CC(C)(C)[SiH]12(OC(C(F)(F)F)(C(F)(F)F)c3ccccc31)OC(C(F)(F)F)(C(F)(F)F)c1ccccc12`, the TGI in the experiment on NCI-H226 lung is 5.05 µM; in the experiment with U251 CNS, 6.19 µM; in the experiment on OVCAR-3 ovarian, 16.6 µM; in the experiment on SK-MEL-28 melanoma, 28.4 µM; with MALME-3M melanoma it was 31 µM; in the experiment with NCI-H522 lung it was 17.7 µM.

Turning to `CC(C)(C)OC(=O)NCC(=O)OCc1ccccc1`, the TGI in the experiment on U251 CNS, in the experiment on OVCAR-3 ovarian, with SK-MEL-28 melanoma, with MALME-3M melanoma and in the experiment with CCRF-CEM leukemia was above 100 µM throughout.

As for `O=S(O)CCCCSSCC(O)C(O)CSSCCCCS(=O)O` (stereo not given), the TGI in the experiment on U251 CNS is above 100 µM; in the experiment on OVCAR-3 ovarian, 23.8 µM and 25.6 µM; in the experiment with SK-MEL-28 melanoma, 45.1 µM and > 100 µM; with MALME-3M melanoma, 25.8 µM and 35.9 µM; in the experiment with CCRF-CEM leukemia, 31.9 µM and 26.2 µM; in the experiment on NCI-H522 lung, 20 µM and 30.4 µM. Besides, in the experiment on NCI-H522 lung, the GI50 is 6.48 µM and 13 µM.

For `O=C1c2ccccc2C2(Br)C(=O)c3ccccc3C12` (stereo not given), the TGI in the experiment on U251 CNS, in the experiment on OVCAR-3 ovarian, with SK-MEL-28 melanoma, in the experiment on MALME-3M melanoma, with CCRF-CEM leukemia and in the experiment on NCI-H522 lung was above 100 µM throughout.

In the case of `O=C1CN=C(C[N+](=O)[O-])c2ccccc21`, the TGI in the experiment with NCI-H226 lung, with U251 CNS, in the experiment with OVCAR-3 ovarian, with SK-MEL-28 melanoma, in the experiment on MALME-3M melanoma and with NCI-H522 lung was above 100 µM in each case.
